PMC9090415, “Discovery of small molecule inhibitors of Plasmodium falciparum apicoplast DNA polymerase” (Journal of Enzyme Inhibition and Medicinal Chemistry, 2022)

Molecular target: P. falciparum apicoplast DNA polymerase (Pf-apPOL) (Plasmodium falciparum, UniProt Q8ILY1)
Assay: Fluorescence-based high-throughput DNA polymerase assay (molecular beacon), primary screen and dose-response
Assay type: biochemical
Details: for DNA Pol: 90 min, 10 µM
Description: The HT assay employs a molecular beacon, a stem-loop DNA template with a Cy3 dye and the Black Hole Quencher on the 3′ and 5′ ends of the DNA, respectively. Pf-apPOL concentration is based on a calculated absorptivity of ε280 = 56750 M^−1 cm^−1. Reactions were carried out at 25 °C, using Corning 3575 […] (well-volume, 20 µL). Assays testing for compound inhibition composed of reaction buffer (pH 7.9 in 50 mM potassium acetate, 20 mM Tris-acetate and 10 mM magnesium acetate), Pf-apPOL (20 nM), DNA substrate (20 nM), dNTPs (6 µM), and compound (10 µM in DMSO). The DNA and nucleotide substrates (dNTPs) were at concentrations of 20 nM and 6 µM, respectively, in the assay. Pf-apPOL was incubated in the reaction buffer with dNTPs and the compound of interest (10 µM, in the assay) at 25 °C for 10 min. The DNA substrate was then added and the reaction was allowed to proceed for 90 min at 25 °C.
Each assay plate contained 16 negative controls (no Pf-apPOL, DMSO present) and 16 positive controls (Pf-apPOL present, no DMSO). The fluorescence of each well was determined using a BioTek Synergy Neo fluorescence plate reader using excitation and emission wavelengths of 555 and 570 nm, respectively.
In the above, Min is the average of fluorescence emission of the negative controls (substrate only), Max the average fluorescence emission from the positive controls (enzyme + substrate), and Test the emission from the assays in the presence of compounds (enzyme + compound + substrates). […] […] The IC50 of each compound was determined using Equation (2): (2) IC50= Vmax/(1+ (I/IC50)^n)
In the above, n measures cooperativity, with n > 1 indicating synergistic binding of more than a single molecule of the compound.
To identify apPOL inhibitors we utilised our previously developed high-throughput DNA polymerase assay. The HT assay is based on a molecular beacon DNA template that forms a stem-loop with a Cy3 dye and the Black Hole Quencher on the 3′ and 5′ ends of the DNA, respectively. DNA polymerase activity extends an annealed primer through the stem region, displacing the fluorophore from the quencher, thereby increasing its fluorescence (Figure 1(A)). The assay accurately recapitulates the kinetic behaviour of apPOL, as measured through more conventional low-throughput gel-based assays. The Z′ factor for the assay described here was 0.9 across all plates (data not shown).
Figure 1. High-throughput screening. (A) The fluorescent-based DNA polymerase assay used to screen the compound libraries. The DNA template strand is a hairpin loop with a primer annealed to the loop. The 3’ end of the primer is 11 bases away from the 6 bp duplex. Strand displacement activity of the DNA polymerase separates the Cy3 dye from the Black hole quencher leading to an increase in fluorescent signal. (B) The high-throughput assay workflow. The DNA polymerase is incubated with […] compound for 10 min prior to addition of the hairpin substrate. The reaction is quenched at 3 different time points and the fluorescent signal is measured and % inhibition is determined using the provided equation.

[1] = primary screen value of the 186 hits, unit not given

P. falciparum apicoplast DNA polymerase (Pf-apPOL), sequence (Q8ILY1 entry or part of it): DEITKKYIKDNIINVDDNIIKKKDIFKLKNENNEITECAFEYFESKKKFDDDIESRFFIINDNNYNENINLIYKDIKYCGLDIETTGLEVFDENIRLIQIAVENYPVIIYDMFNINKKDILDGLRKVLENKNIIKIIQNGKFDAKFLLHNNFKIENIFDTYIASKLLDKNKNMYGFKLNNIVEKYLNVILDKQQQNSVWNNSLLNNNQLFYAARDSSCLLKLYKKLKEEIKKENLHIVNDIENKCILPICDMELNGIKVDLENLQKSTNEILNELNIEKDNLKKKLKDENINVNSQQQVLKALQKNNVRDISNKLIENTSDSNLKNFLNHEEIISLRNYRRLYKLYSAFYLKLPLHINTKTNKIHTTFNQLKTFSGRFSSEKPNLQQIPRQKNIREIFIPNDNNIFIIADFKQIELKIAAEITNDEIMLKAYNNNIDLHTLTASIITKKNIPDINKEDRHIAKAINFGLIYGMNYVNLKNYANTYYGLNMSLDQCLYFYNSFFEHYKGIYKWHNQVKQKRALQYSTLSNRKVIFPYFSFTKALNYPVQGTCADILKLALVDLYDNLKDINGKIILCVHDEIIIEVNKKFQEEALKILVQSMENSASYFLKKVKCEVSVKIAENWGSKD

O=c1[nH]c2ccc(Br)cc2c(-c2ccccc2)c1C1=NNC(c2ccco2)C1 (stereo not drawn) [KU0045540]
% inhibition Apo pol 10' (DRC-1, concentration 2.5): 38.7065%
% inhibition Apo pol 10' (DRC-1, concentration 5): 32.1153%
% inhibition Apo pol 10' (DRC-1, concentration 10): 58.5243%
% inhibition Apo pol 10' (DRC-1, concentration 20): 75.2705%
% inhibition Apo pol 10' (DRC-1, concentration 40): 80.4182%
% inhibition Apo pol 10' (DRC-1, concentration 80): 78.0702%
% inhibition Apol 90' (DRC-1, 90', concentration 2.5): 12.887%
% inhibition Apol 90' (DRC-1, 90', concentration 5): 9.899%
% inhibition Apol 90' (DRC-1, 90', concentration 10): 32.8734%
% inhibition Apol 90' (DRC-1, 90', concentration 20): 57.4465%
% inhibition Apol 90' (DRC-1, 90', concentration 40): 76.3337%
% inhibition Apol 90' (DRC-1, 90', concentration 80): 82.7097%
% inhibition apPOL 180' (DRC-1, 180', concentration 2.5): 0.7615%
% inhibition apPOL 180' (DRC-1, 180', concentration 5): -2.038%
% inhibition apPOL 180' (DRC-1, 180', concentration 10): 16.3913%
% inhibition apPOL 180' (DRC-1, 180', concentration 20): 40.539%
% inhibition apPOL 180' (DRC-1, 180', concentration 40): 67.9853%
% inhibition apPOL 180' (DRC-1, 180', concentration 80): 81.6451%
% inhibition Apo pol 5' (DRC-2, 5', concentration 2.5 (unit not given)): 15%
% inhibition Apo pol 5' (DRC-2, 5', concentration 20 (unit not given)): 65%
% inhibition Apo pol 5' (DRC-2, 5', concentration 40 (unit not given)): 65%
% inhibition Apol 40' (DRC-2, 40', concentration 2.5 (unit not given)): 15%
% inhibition Apol 40' (DRC-2, 40', concentration 10 (unit not given)): 49%
% inhibition Apol 40' (DRC-2, 40', concentration 20 (unit not given)): 77%
% inhibition ApPOL 90' (DRC-2, 90', concentration 10 (unit not given)): 49%
% inhibition ApPOL 90' (DRC-2, 90', concentration 20 (unit not given)): 77%
% inhibition ApPOL 90' (DRC-2, 90', concentration 80 (unit not given)): 72%
% inhibition apPOL 180' (DRC-2, 180', concentration 20 (unit not given)): 72%
% inhibition Apo pol 5' (DRC-2, 5', concentration 2.5): 15%
% inhibition Apo pol 5' (DRC-2, 5', concentration 5): 27%
% inhibition Apo pol 5' (DRC-2, 5', concentration 10): 40%
% inhibition Apo pol 5' (DRC-2, 5', concentration 20): 65%
% inhibition Apo pol 5' (DRC-2, 5', concentration 40): 65%
% inhibition Apo pol 5' (DRC-2, 5', concentration 80): 39%
% inhibition Apol 40' (DRC-2, 40', concentration 2.5): 15%
% inhibition Apol 40' (DRC-2, 40', concentration 5): 33%
% inhibition Apol 40' (DRC-2, 40', concentration 10): 49%
% inhibition Apol 40' (DRC-2, 40', concentration 20): 77%
% inhibition Apol 40' (DRC-2, 40', concentration 40): 81%
% inhibition Apol 40' (DRC-2, 40', concentration 80): 67%
% inhibition ApPOL 90' (DRC-2, 90', concentration 2.5): 15%
% inhibition ApPOL 90' (DRC-2, 90', concentration 2.5 (unit not given)): 15%
% inhibition ApPOL 90' (DRC-2, 90', concentration 5): 31%
% inhibition ApPOL 90' (DRC-2, 90', concentration 10): 49%
% inhibition ApPOL 90' (DRC-2, 90', concentration 20): 77%
% inhibition ApPOL 90' (DRC-2, 90', concentration 40): 83%
% inhibition ApPOL 90' (DRC-2, 90', concentration 80): 72%
% inhibition apPOL 180' (DRC-2, 180', concentration 2.5): 11%
% inhibition apPOL 180' (DRC-2, 180', concentration 5): 22%
% inhibition apPOL 180' (DRC-2, 180', concentration 10): 41%
% inhibition apPOL 180' (DRC-2, 180', concentration 20): 72%
% inhibition apPOL 180' (DRC-2, 180', concentration 40): 82%
% inhibition apPOL 180' (DRC-2, 180', concentration 80): 75%
DNA Pol [1]: 43
DNA Pol (primary screen value, head "DNA Pol", unit not given): 43

Cc1cc(C)c(O)c(/N=C/c2cc([N+](=O)[O-])cc(Br)c2O)c1 [KU0046272]
% inhibition Apo pol 10' (DRC-1, concentration 2.5): 3.169%
% inhibition Apo pol 10' (DRC-1, concentration 5): -1.228%
% inhibition Apo pol 10' (DRC-1, concentration 10): 12.3955%
% inhibition Apo pol 10' (DRC-1, concentration 20): 36.9804%
% inhibition Apo pol 10' (DRC-1, concentration 40): 60.3951%
% inhibition Apo pol 10' (DRC-1, concentration 80): 90.16%
% inhibition Apol 90' (DRC-1, 90', concentration 2.5): -6.623%
% inhibition Apol 90' (DRC-1, 90', concentration 5): -11.6285%
% inhibition Apol 90' (DRC-1, 90', concentration 10): 2.689%
% inhibition Apol 90' (DRC-1, 90', concentration 20): 23.1885%
% inhibition Apol 90' (DRC-1, 90', concentration 40): 44.716%
% inhibition Apol 90' (DRC-1, 90', concentration 80): 85.7846%
% inhibition apPOL 180' (DRC-1, 180', concentration 2.5): -11.4225%
% inhibition apPOL 180' (DRC-1, 180', concentration 5): -16.1751%
% inhibition apPOL 180' (DRC-1, 180', concentration 10): -3.511%
% inhibition apPOL 180' (DRC-1, 180', concentration 20): 14.6468%
% inhibition apPOL 180' (DRC-1, 180', concentration 40): 35.3485%
% inhibition apPOL 180' (DRC-1, 180', concentration 80): 85.8895%
% inhibition Apo pol 5' (DRC-2, 5', concentration 2.5): 7%
% inhibition Apo pol 5' (DRC-2, 5', concentration 5): 6%
% inhibition Apo pol 5' (DRC-2, 5', concentration 10): 4.64%
% inhibition Apo pol 5' (DRC-2, 5', concentration 20): 17%
% inhibition Apo pol 5' (DRC-2, 5', concentration 40): 41%
% inhibition Apo pol 5' (DRC-2, 5', concentration 80): 54%
% inhibition Apol 40' (DRC-2, 40', concentration 2.5): 2%
% inhibition Apol 40' (DRC-2, 40', concentration 5): 4.73%
% inhibition Apol 40' (DRC-2, 40', concentration 10): 4%
% inhibition Apol 40' (DRC-2, 40', concentration 20): 19%
% inhibition Apol 40' (DRC-2, 40', concentration 40): 47%
% inhibition Apol 40' (DRC-2, 40', concentration 80): 72%
% inhibition ApPOL 90' (DRC-2, 90', concentration 2.5): 1%
% inhibition ApPOL 90' (DRC-2, 90', concentration 5): 3.45%
% inhibition ApPOL 90' (DRC-2, 90', concentration 10): 2.43%
% inhibition ApPOL 90' (DRC-2, 90', concentration 20): 20%
% inhibition ApPOL 90' (DRC-2, 90', concentration 40): 47%
% inhibition ApPOL 90' (DRC-2, 90', concentration 80): 75%
% inhibition apPOL 180' (DRC-2, 180', concentration 2.5): -0.688%
% inhibition apPOL 180' (DRC-2, 180', concentration 5): 1.3%
% inhibition apPOL 180' (DRC-2, 180', concentration 10): 1.29%
% inhibition apPOL 180' (DRC-2, 180', concentration 20): 17%
% inhibition apPOL 180' (DRC-2, 180', concentration 40): 40%
% inhibition apPOL 180' (DRC-2, 180', concentration 80): 75%
% inhibition Apo pol 5' (conc. 20, 5', DRC-2): 17%
% inhibition apPOL 180' (conc. 20, 180', DRC-2): 17%
% inhibition Apol 40' (conc. 40, 40', DRC-2): 47%
% inhibition ApPOL 90' (conc. 40, 90', DRC-2): 47%
% inhibition ApPOL 90' (conc. 80, 90', DRC-2): 75%
% inhibition apPOL 180' (conc. 80, 180', DRC-2): 75%
DNA Pol (primary screen value by plate and well): 45
DNA Pol [1]: 45
